In this assay the test system is PMNs C5a induced chemotaxis. The assay can be described thus: Inhibition of C5a-induced chemotaxis of human PMNs. Format: cell-based. The following applies: 1 h, read-out: C5a (% inhibition at 10^−8 M). On the procedure:
The compounds prepared in Example 2 were evaluated in vitro for their ability to inhibit chemotaxis of polymorphonucleate leukocytes (hereinafter referred to as PMNs) and monocytes induced by the fractions of the complement C5a and C5a-desArg. For this purpose, to isolate the PMNs from heparinized human blood, taken from healthy adult volunteers, mononucleates were removed by means of sedimentation on dextran (according to the procedure disclosed by W. J. Ming et al., J. Immunol., 138, 1469, 1987) and red blood cells by a hypotonic solution. The cell vitality was calculated by exclusion with Trypan blue, whilst the ratio of the circulating polymorphonucleates was estimated on the cytocentrifugate after staining with Diff Quick.
Human recombinant fractions C5a and C5a-desArg (Sigma) were used as stimulating agents in the chemotaxis experiments, giving practically identical results.
The lyophilized C5a was dissolved in a volume of HBSS containing 0.2% bovin serum albumin BSA so thus to obtain a stock solution having a concentration of 10^−5 M to be diluted in HBSS to a concentration of 10^−9 M, for the chemotaxis assays.
In the chemotaxis experiments, the PMNs were incubated with the compounds of the invention of formula (I) for 15′ at 37° C. in an atmosphere containing 5% CO2. The chemotactic activity of the C5a was evaluated on human circulating polymorphonucleates (PMNs) resuspended in HBSS at a concentration of 1.5×10^6 PMNs per ml. During the chemotaxis assay (according to W. Falket et al., J. Immunol. Methods, 33, 239, 1980) PVP-free filters with a porosity of 5 μm and microchambers suitable for replication were used.
The compounds of Example 2 were evaluated at a concentration ranging between 10^−7 and 10^−10 M; for this purpose they were added, at the same concentration, both to the lower pores and the upper pores of the microchamber. The wells in the lower part contain the solution of C5a or the simple carrier, those in the upper part contain the suspension of PMNs.
Inhibition of C5a-induced chemotactic activity by the individual compounds was evaluated by incubating the microchamber for the chemotaxis for 60 min at 37° C. in an atmosphere containing 5% CO2.

Where [1] appears, read: compound 10^−8 M, human PMNs, C5a 10^−9 M, 60 min at 37° C.

Molecules are shown by their SMILES. Like-named read-outs stand apart in the source and are kept apart here.

By inhibition is commonly meant how much of the control response was suppressed.

As to `C[C@H](c1ccc(Nc2nc(C(F)(F)F)cs2)cc1)c1nnn[nH]1` [Compound 1, N-{4-[(1R)-1-(1H-tetrazol-5-yl)ethyl]phenyl}-4-(trifluoromethyl)-1,3-thiazol-2-amine], the inhibition at 0.01 µM under setting [1] was 60 ± 1%.
Same read-out and setting: under `Cc1csc(Nc2ccc([C@@H](C)c3nnn[nH]3)cc2)n1` [Compound 2, 4-methyl-N-{4-[(1R)-1-(1H-tetrazol-5-yl)ethyl]phenyl}-1,3-thiazol-2-amine] stands 45 ± 3%; under `C[C@H](c1ccc(Nc2nc(C(C)(C)C)cs2)cc1)c1nnn[nH]1` [Compound 3, 4-tert-butyl-N-{4-[(1R)-1-(1H-tetrazol-5-yl)ethyl]phenyl}-1,3-thiazol-2-amine], 42 ± 8%.
Turning to `C[C@H](c1ccc(Nc2nccs2)cc1)c1nnn[nH]1` [Compound 4, N-{4-[(1R)-1-(1H-tetrazol-5-yl)ethyl]phenyl}-1,3-thiazol-2-amine], the inhibition at 0.01 µM under setting [1] was found to be 39 ± 3%.
Same read-out and setting: the result for `C[C@H](c1ccc(Nc2nc(C(F)(F)F)co2)cc1)c1nnn[nH]1` [Compound 5, N-{4-[(1R)-1-(1H-tetrazol-5-yl)ethyl]phenyl}-4-(trifluoromethyl)-1,3-oxazol-2-amine] reads 55 ± 1%; that for `Cc1coc(Nc2ccc([C@@H](C)c3nnn[nH]3)cc2)n1` [Compound 6, 4-methyl-N-{4-[(1R)-1-(1H-tetrazol-5-yl)ethyl]phenyl}-1,3-oxazol-2-amine], 51 ± 7%.
Still for that read-out and setting: under `C[C@H](c1ccc(Nc2nc(C(F)(F)F)cs2)cc1)c1ccnn1O` [Compound 7, 5-[(1R)-1-(4-{[4-(trifluoromethyl)-1,3-thiazol-2-yl]amino}phenyl)ethyl]-1H-pyrazol-1-ol] stands 38 ± 6%.
Turning to `Cc1cnn(O)c1[C@H](C)c1ccc(Nc2nc(C(F)(F)F)cs2)cc1` [Compound 8, 4-methyl-5-[(1R)-1-(4-{[4-(trifluoromethyl)-1,3-thiazol-2-yl]amino}phenyl)ethyl]-1H-pyrazol-1-ol], the inhibition at 0.01 µM under setting [1] is 48 ± 5%.
The same measure, in the same setting: the result for `C[C@H](c1ccc(Nc2nc(C(F)(F)F)cs2)cc1)c1cnnn1O` [Compound 9, 5-[(1R)-1-(4-{[4-(trifluoromethyl)-1,3-thiazol-2-yl]amino}phenyl)ethyl]-1H-1,2,3-triazol-1-ol] reads 44 ± 1%.
On the same count and under the same terms, the result for `C[C@H](c1ccc(Nc2nc(C(F)(F)F)cs2)cc1)c1cc(O)no1` [Compound 10, 5-[(1R)-1-(4-{[4-(trifluoromethyl)-1,3-thiazol-2-yl]amino}phenyl)ethyl]isoxazol-3-ol] reads 56 ± 1%.
For `Cc1c(O)noc1[C@H](C)c1ccc(Nc2nc(C(F)(F)F)cs2)cc1` [Compound 11, 4-methyl-5-[(1R)-1-(4-{[4-(trifluoromethyl)-1,3-thiazol-2-yl]amino}phenyl)ethyl]isoxazol-3-ol], under “Homo sapiens”, the inhibition at 0.01 µM was 45 ± 4%.
As for `C[C@H](c1ccc(Nc2nc(C(F)(F)F)cs2)cc1)c1cc(O)ns1` [Compound 12, 5-[(1R)-1-(4-{[4-(trifluoromethyl)-1,3-thiazol-2-yl]amino}phenyl)ethyl]isothiazol-3-ol], under setting [1], the inhibition at 0.01 µM turned out to be 45 ± 3%.
Regarding `C[C@H](c1ccc(Nc2nc(C(F)(F)F)cs2)cc1)c1nonc1O` [Compound 13, 4-[(1R)-1-(4-{[4-(trifluoromethyl)-1,3-thiazol-2-yl]amino}phenyl)ethyl]-1,2,5-oxadiazol-3-ol], under setting [1], the inhibition at 0.01 µM amounted to 51 ± 4%.
Turning to `C[C@H](c1ccc(Nc2nc(C(F)(F)F)cs2)cc1)c1nsnc1O` [Compound 14, 4-[(1R)-1-(4-{[4-(trifluoromethyl)-1,3-thiazol-2-yl]amino}phenyl)ethyl]-1,2,5-thiadiazol-3-ol], the inhibition at 0.01 µM under setting [1] worked out at 60 ± 9%.
With `C[C@H](c1ccc(Nc2nc(C(F)(F)F)cs2)cc1)c1ncnn1O` [Compound 15, 5-[(1R)-1-(4-{[4-(trifluoromethyl)-1,3-thiazol-2-yl]amino}phenyl)ethyl]-1H-1,2,4-triazol-1-ol], the inhibition at 0.01 µM under setting [1] was found to be 43 ± 1%.
